{"source": "ChEMBL document CHEMBL3286094", "about": "“Synthesis and biological evaluation of novel bisbenzimidazoles as Escherichia coli topoisomerase IA inhibitors and potential antibacterial agents” (J Med Chem, 2014)", "key": {"Escherichia coli [1]": {"test_system": "Escherichia coli", "assay": "Antibacterial activity against ampicillin/ciprofloxacin/gentamicin/tetracycline-resistant Escherichia coli 555 assessed as growth inhibition after 18 to 24 hrs by broth microdilution method", "type": "functional"}, "Escherichia coli [2]": {"test_system": "Escherichia coli", "assay": "Bactericidal activity against ciprofloxacin-resistant Escherichia coli 72 by agar plating method", "type": "functional"}, "Escherichia coli [3]": {"test_system": "Escherichia coli", "assay": "Bactericidal activity against chloroamphenicol/ampicillin/kanamycin/trimethoprim/ciprofloxacin/nalidixic acid-resistant Escherichia coli 85 by agar plating method", "type": "functional"}, "Escherichia coli [4]": {"test_system": "Escherichia coli", "assay": "Bactericidal activity against ampicillin/tetracycline/gentamicin-resistant Escherichia coli 451 by agar plating method", "type": "functional"}, "Escherichia coli [5]": {"test_system": "Escherichia coli", "assay": "Bactericidal activity against chloramphenicol/ampicillin/trimethoprim/ciprofloxacin/nalidixic acid-resistant Escherichia coli 59 by agar plating method", "type": "functional"}, "Escherichia coli [6]": {"test_system": "Escherichia coli", "assay": "Bactericidal activity against ampicillin/kanamycin/trimethoprim/tetracyclin/ciprofloxacin/nalidixic acid-resistant Escherichia coli 81 by agar plating method", "type": "functional"}, "Escherichia coli [7]": {"test_system": "Escherichia coli", "assay": "Bactericidal activity against chloramphenicol/ampicillin/kanamycin/trimethoprim/ciprofloxacin/nalidixic acid-resistant Escherichia coli 132 by agar plating method", "type": "functional"}, "Escherichia coli [8]": {"test_system": "Escherichia coli", "assay": "Bactericidal activity against ampicillin/ciprofloxacin/gentamicin/tetracycline-resistant Escherichia coli 555 by agar plating method", "type": "functional"}, "Escherichia coli [9]": {"test_system": "Escherichia coli", "assay": "Inhibition of Escherichia coli DNA gyrase using relaxed pHOT1 plasmid DNA as substrate assessed as inhibition of DNA supercoiling up to 100 uM after 30 mins by agarose gel electrophoresis"}, "Escherichia coli [10]": {"test_system": "Escherichia coli", "assay": "Antibacterial activity against Escherichia coli DH5[alpha] assessed as growth inhibition after 18 to 24 hrs by broth microdilution method", "type": "functional"}, "Escherichia coli [11]": {"test_system": "Escherichia coli", "assay": "Antibacterial activity against Escherichia coli ATCC 25922 assessed as growth inhibition after 18 to 24 hrs by broth microdilution method", "type": "functional"}, "Escherichia coli [12]": {"test_system": "Escherichia coli", "assay": "Bactericidal activity against Escherichia coli ATCC 25922 by agar plating method", "type": "functional"}, "Escherichia coli [13]": {"test_system": "Escherichia coli", "assay": "Antibacterial activity against ciprofloxacin-resistant Escherichia coli 72 assessed as growth inhibition after 18 to 24 hrs by broth microdilution method", "type": "functional"}, "Escherichia coli [14]": {"test_system": "Escherichia coli", "assay": "Antibacterial activity against ampicillin/trimethoprim/nalidixic acid-resistant Escherichia coli 118 assessed as growth inhibition after 18 to 24 hrs by broth microdilution method", "type": "functional"}, "Escherichia coli [15]": {"test_system": "Escherichia coli", "assay": "Antibacterial activity against chloroamphenicol/ampicillin/kanamycin/trimethoprim/ciprofloxacin/nalidixic acid-resistant Escherichia coli 85 assessed as growth inhibition after 18 to 24 hrs by broth microdilution method", "type": "functional"}, "Escherichia coli [16]": {"test_system": "Escherichia coli", "assay": "Antibacterial activity against gentamicin/kanamycin/tetracycline/nalidixic acid-resistant Escherichia coli 360 assessed as growth inhibition after 18 to 24 hrs by broth microdilution method", "type": "functional"}, "Escherichia coli [17]": {"test_system": "Escherichia coli", "assay": "Antibacterial activity against ampicillin/tetracycline/gentamicin-resistant Escherichia coli 451 assessed as growth inhibition after 18 to 24 hrs by broth microdilution method", "type": "functional"}, "Escherichia coli [18]": {"test_system": "Escherichia coli", "assay": "Antibacterial activity against ampicillin/kanamycin/trimethoprim/tetracyclin/ciprofloxacin/nalidixic acid-resistant Escherichia coli 81 assessed as growth inhibition after 18 to 24 hrs by broth microdilution method", "type": "functional"}, "Escherichia coli [19]": {"test_system": "Escherichia coli", "assay": "Antibacterial activity against chloramphenicol/ampicillin/kanamycin/trimethoprim/ciprofloxacin/nalidixic acid-resistant Escherichia coli 132 assessed as growth inhibition after 18 to 24 hrs by broth microdilution method", "type": "functional"}, "Escherichia coli [20]": {"test_system": "Escherichia coli", "assay": "Antibacterial activity against chloramphenicol/ampicillin/kanamycin/trimethoprim/ciprofloxacin/nalidixic acid-resistant Escherichia coli 151 assessed as growth inhibition after 18 to 24 hrs by broth microdilution method", "type": "functional"}, "Escherichia coli [21]": {"test_system": "Escherichia coli", "assay": "Antibacterial activity against ampicillin/chloramphenicol/ciprofloxacin/gentamicin/tetracycline-resistant Escherichia coli 401 assessed as growth inhibition after 18 to 24 hrs by broth microdilution method", "type": "functional"}, "Escherichia coli [22]": {"test_system": "Escherichia coli", "assay": "Bactericidal activity against ampicillin/tetracycline-resistant Escherichia coli IP18 isolated from water source by agar plating method"}, "Escherichia coli [23]": {"test_system": "Escherichia coli", "assay": "Bactericidal activity against tetracycline/trimethoprim-resistant Escherichia coli IST isolated from water source by agar plating method"}, "Escherichia coli [24]": {"test_system": "Escherichia coli", "assay": "Bactericidal activity against ampicillin/tetracycline/piperacillin-resistant Escherichia coli WB31 isolated from water source by agar plating method"}, "Escherichia coli [25]": {"test_system": "Escherichia coli", "assay": "Bactericidal activity against ampicillin/trimethoprim/piperacillin-resistant Escherichia coli MKNJ isolated from water source by agar plating method"}, "Escherichia coli [26]": {"test_system": "Escherichia coli", "assay": "Antibacterial activity against multidrug-resistant Escherichia coli IP9 isolated from water source assessed as growth inhibition after 18 to 24 hrs by broth microdilution method"}, "Escherichia coli [27]": {"test_system": "Escherichia coli", "assay": "Antibacterial activity against ampicillin/tetracycline-resistant Escherichia coli IP18 isolated from water source assessed as growth inhibition after 18 to 24 hrs by broth microdilution method"}, "Escherichia coli [28]": {"test_system": "Escherichia coli", "assay": "Antibacterial activity against tetracycline/trimethoprim-resistant Escherichia coli IST isolated from water source assessed as growth inhibition after 18 to 24 hrs by broth microdilution method"}, "Escherichia coli [29]": {"test_system": "Escherichia coli", "assay": "Bactericidal activity against ampicillin/trimethoprim/cefazolinl/piperacillin/cefuroxime/cefoxitine/cefepime/cefotaxime-resistant Escherichia coli KP21 isolated from water source by agar plating method"}, "Escherichia coli [30]": {"test_system": "Escherichia coli", "assay": "Bactericidal activity against cefazolinl/ampicillin/piperacillin/cefuroxime/cefepime/cefotaxime/tetracycline/trimethoprim-resistant Escherichia coli KK16 isolated from water source by agar plating method"}, "Escherichia coli [31]": {"test_system": "Escherichia coli", "assay": "Antibacterial activity against ampicillin/trimethoprim/piperacillin-resistant Escherichia coli MKNJ isolated from water source assessed as growth inhibition after 18 to 24 hrs by broth microdilution method"}, "Escherichia coli [32]": {"test_system": "Escherichia coli", "assay": "Antibacterial activity against ampicillin/chloramphenicol/tetracycline/trimethoprim/ciprofloxacin-resistant Escherichia coli KK45 isolated from water source assessed as growth inhibition after 18 to 24 hrs by broth microdilution method"}, "Escherichia coli [33]": {"test_system": "Escherichia coli", "assay": "Antibacterial activity against ampicillin/trimethoprim/cefazolinl/piperacillin/cefuroxime/cefoxitine/cefepime/cefotaxime-resistant Escherichia coli KP21 isolated from water source assessed as growth inhibition after 18 to 24 hrs by broth microdilution method"}, "Escherichia coli [34]": {"test_system": "Escherichia coli", "assay": "Antibacterial activity against cefazolinl/ampicillin/piperacillin/cefuroxime/cefepime/cefotaxime/tetracycline/ciprofloxacin-resistant Escherichia coli NG3 isolated from water source assessed as growth inhibition after 18 to 24 hrs by broth microdilution method"}, "Escherichia coli [35]": {"test_system": "Escherichia coli", "assay": "Antibacterial activity against cefazolinl/ampicillin/piperacillin/cefuroxime/cefepime/cefotaxime/tetracycline/trimethoprim-resistant Escherichia coli KK16 isolated from water source assessed as growth inhibition after 18 to 24 hrs by broth microdilution method"}}, "note": "Activity calls are given as the source filed them. The calls are words filed in the database; no cut-off is given here.", "data": [{"smiles": "COc1ccc(-c2nc3ccc(-c4nc5ccc(N6CCN(c7ncccn7)CC6)cc5[nH]4)cc3[nH]2)cc1OC", "values": [{"measurement": "MIC50", "setting": "Escherichia coli [1]", "result": 32, "unit": "mg/L"}, {"measurement": "MIC90", "setting": "Escherichia coli [1]", "result": 59.4, "unit": "mg/L"}, {"measurement": "MBC", "setting": "Escherichia coli [2]", "result": 32, "unit": "mg/L"}, {"measurement": "MBC", "setting": "Escherichia coli [3]", "result": 64, "unit": "mg/L"}, {"measurement": "MBC", "setting": "Escherichia coli [4]", "result": 32, "unit": "mg/L"}, {"measurement": "MBC", "setting": "Escherichia coli [5]", "result": 32, "unit": "mg/L"}, {"measurement": "MBC", "setting": "Escherichia coli [6]", "result": 32, "unit": "mg/L"}, {"measurement": "MBC", "setting": "Escherichia coli [7]", "result": 128, "unit": "mg/L"}, {"measurement": "MBC", "setting": "Escherichia coli [8]", "result": 64, "unit": "mg/L"}, {"measurement": "inhibition", "setting": "Escherichia coli [9]", "result": "inactive"}, {"measurement": "MIC50", "setting": "Escherichia coli [10]", "result": 2, "unit": "mg/L"}, {"measurement": "MIC90", "setting": "Escherichia coli [10]", "result": 3.6, "unit": "mg/L"}, {"measurement": "MIC50", "setting": "Escherichia coli [11]", "result": 32, "unit": "mg/L"}, {"measurement": "MIC90", "setting": "Escherichia coli [11]", "result": 49, "unit": "mg/L"}, {"measurement": "MBC", "setting": "Escherichia coli [12]", "result": 64, "unit": "mg/L"}, {"measurement": "MIC50", "setting": "Escherichia coli [13]", "result": 16, "unit": "mg/L"}, {"measurement": "MIC90", "setting": "Escherichia coli [13]", "result": 30.1, "unit": "mg/L"}, {"measurement": "MIC50", "setting": "Escherichia coli [14]", "result": 4, "unit": "mg/L"}, {"measurement": "MIC90", "setting": "Escherichia coli [14]", "result": 7.4, "unit": "mg/L"}, {"measurement": "MIC50", "setting": "Escherichia coli [15]", "result": 32, "unit": "mg/L"}, {"measurement": "MIC90", "setting": "Escherichia coli [15]", "result": 55.8, "unit": "mg/L"}, {"measurement": "MIC50", "setting": "Escherichia coli [16]", "result": "> 128", "unit": "mg/L"}, {"measurement": "MIC50", "setting": "Escherichia coli [17]", "result": 16, "unit": "mg/L"}, {"measurement": "MIC90", "setting": "Escherichia coli [17]", "result": 28.8, "unit": "mg/L"}, {"measurement": "MIC50", "setting": "Escherichia coli [18]", "result": 16, "unit": "mg/L"}, {"measurement": "MIC90", "setting": "Escherichia coli [18]", "result": 29.7, "unit": "mg/L"}, {"measurement": "MIC50", "setting": "Escherichia coli [19]", "result": 64, "unit": "mg/L"}, {"measurement": "MIC90", "setting": "Escherichia coli [19]", "result": 122, "unit": "mg/L"}, {"measurement": "MIC50", "setting": "Escherichia coli [20]", "result": 16, "unit": "mg/L"}, {"measurement": "MIC90", "setting": "Escherichia coli [20]", "result": 30.4, "unit": "mg/L"}, {"measurement": "MIC50", "setting": "Escherichia coli [21]", "result": 16, "unit": "mg/L"}, {"measurement": "MIC90", "setting": "Escherichia coli [21]", "result": 29, "unit": "mg/L"}, {"measurement": "MBC", "setting": "Escherichia coli [22]", "result": 32, "unit": "mg/L"}, {"measurement": "MBC", "setting": "Escherichia coli [23]", "result": 32, "unit": "mg/L"}, {"measurement": "MBC", "setting": "Escherichia coli [24]", "result": 32, "unit": "mg/L"}, {"measurement": "MBC", "setting": "Escherichia coli [25]", "result": 64, "unit": "mg/L"}, {"measurement": "MIC50", "setting": "Escherichia coli [26]", "result": 128, "unit": "mg/L"}, {"measurement": "MIC50", "setting": "Escherichia coli [27]", "result": 16, "unit": "mg/L"}, {"measurement": "MIC90", "setting": "Escherichia coli [27]", "result": 30.8, "unit": "mg/L"}, {"measurement": "MIC50", "setting": "Escherichia coli [28]", "result": 16, "unit": "mg/L"}, {"measurement": "MIC90", "setting": "Escherichia coli [28]", "result": 30.8, "unit": "mg/L"}, {"measurement": "MBC", "setting": "Escherichia coli [29]", "result": 64, "unit": "mg/L"}, {"measurement": "MBC", "setting": "Escherichia coli [30]", "result": 32, "unit": "mg/L"}, {"measurement": "MIC50", "setting": "Escherichia coli [31]", "result": 32, "unit": "mg/L"}, {"measurement": "MIC90", "setting": "Escherichia coli [31]", "result": 61.4, "unit": "mg/L"}, {"measurement": "MIC50", "setting": "Escherichia coli [32]", "result": 16, "unit": "mg/L"}, {"measurement": "MIC90", "setting": "Escherichia coli [32]", "result": 30.2, "unit": "mg/L"}, {"measurement": "MIC50", "setting": "Escherichia coli [33]", "result": 32, "unit": "mg/L"}, {"measurement": "MIC90", "setting": "Escherichia coli [33]", "result": 60.5, "unit": "mg/L"}, {"measurement": "MIC50", "setting": "Escherichia coli [34]", "result": 16, "unit": "mg/L"}, {"measurement": "MIC90", "setting": "Escherichia coli [34]", "result": 30.6, "unit": "mg/L"}, {"measurement": "MIC50", "setting": "Escherichia coli [35]", "result": 16, "unit": "mg/L"}, {"measurement": "MIC90", "setting": "Escherichia coli [35]", "result": 30.4, "unit": "mg/L"}]}]}
